Literature values, collected in PMC12794188, “Maternal–Fetal Transfer and Toxicokinetics of 2,2′,5,5′-Tetrachlorobiphenyl, [^14C]-PCB52, Following Intratracheal Administration” (Chemical Research in Toxicology, 2025).

Design: method as in Pu et al.
Conditions: ref Pu et al., cited from earlier work

Clc1ccc(Cl)c(-c2cc(Cl)ccc2Cl)c1 [PCB52, 2,2′,5,5′-Tetrachlorobiphenyl]
half-life (intravenous administration in male rats): ~10 days | half-life estimate (intravenous, male rats, measured only up to 72 h postdosing): 10 days
